Test results: patent publication US7312210B2, “Pyrrolo[2,1-c][1,4]benzodiazepine compounds and processes for the preparation thereof” (Council of Scientific and Industrial Research, priority 2005, dated 2007)

Columns and labels:
[1] = system: CNS cancer cell lines; test: NCI in vitro cytotoxicity screen (SRB assay), CNS cell lines; format: cell-based, human; details: average of six to nine different cancer cell lines, 48 h exposure
Experimental: (§1) Biological Activity: In vitro biological activity studies were carried out at the National Cancer Institute (USA).
(§2) Cytotoxicity: The compounds 7-methoxy-8-{5-[4-(2-oxo-2H-4-chromenyl)piperazino]pentyl}-oxy-(11aS)-1,2,3,11a-5H-pyrrolo[2,1-c][1,4]benzodiazepin-5-one, 7-methoxy-8-{3-[4-(7-methoxy-8-methyl-2-oxo-2H-4-chromenyl)piperazino]propyl}-oxy-(11aS)-1,2,3,11a-5H-pyrrolo[2,1-c][1,4]benzodiazepin-5-one and 7-methoxy-8-{5-[4-(7-methoxy-8-methyl-2-oxo-2H-4-chromenyl)piperazino]pentyl}-oxy-(11aS)-1,2,3,11a-5H-pyrrolo[2,1-c][1,4]benzodiazepin-5-one were evaluated for in vitro anticancer activity against sixty human tumor cells derived from […] (leukemia, non-small-cell lung, colon, CNS, melanoma, ovarian, prostate, and breast cancer) as shown in (Table 2). For each compound, dose response curves for each cell line were measured at a minimum of five concentrations at 10 fold dilutions. A protocol of 48 h continuous drug exposure was used and a sulforhodamine B (SRB) protein assay was used to estimate cell viability or growth. The concentration causing 50% cell growth inhibition (GI50), total cell growth inhibition (TGI 0% growth) and 50% cell death (LC50, −50% growth) compared with the control was calculated.
(§3) Each cancer type represents the average of six to nine different cancer cell lines.

[2] = system: Prostate cancer cell lines; test: NCI in vitro cytotoxicity screen (SRB assay), prostate cell lines; format: cell-based, human; details: average of six to nine different cancer cell lines, 48 h exposure
Experimental: as §1, §2, §3

[3] = system: Leukemia cancer cell lines; test: NCI in vitro cytotoxicity screen (SRB assay), leukemia cell lines; format: cell-based, human; details: average of six to nine different cancer cell lines, 48 h exposure
Experimental: as §1, §2, §3

[4] = system: Breast cancer cell lines; test: NCI in vitro cytotoxicity screen (SRB assay), breast cell lines; format: cell-based, human; details: average of six to nine different cancer cell lines, 48 h exposure
Experimental: as §1, §2, §3

[5] = system: Ovarian cancer cell lines; test: NCI in vitro cytotoxicity screen (SRB assay), ovarian cell lines; format: cell-based, human; details: average of six to nine different cancer cell lines, 48 h exposure
Experimental: as §1, §2, §3

[6] = system: Renal cancer cell lines; test: NCI in vitro cytotoxicity screen (SRB assay), renal cell lines; format: cell-based, human; details: average of six to nine different cancer cell lines, 48 h exposure
Experimental: as §1, §2, §3

[7] = system: Colon cancer cell lines; test: NCI in vitro cytotoxicity screen (SRB assay), colon cell lines; format: cell-based, human; details: average of six to nine different cancer cell lines, 48 h exposure
Experimental: as §1, §2, §3

[8] = system: Non-small-cell-lung cancer cell lines; test: NCI in vitro cytotoxicity screen (SRB assay), non-small-cell-lung cell lines; format: cell-based, human; details: average of six to nine different cancer cell lines, 48 h exposure
Experimental: as §1, §2, §3

[9] = system: sixty human tumor cells derived from nine cancer types; test: NCI in vitro cytotoxicity screen (SRB assay), mean graph midpoints over all cell lines; format: cell-based; details: for Log10LC50 mean graph midpoint (MG_MID): 50% cell death (−50% growth); for Log10LC50 mean graph midpoint (MG_MID) / Log10GI50 mean graph midpoint (MG_MID) / Log10TGI mean graph midpoint (MG_MID): 48 h continuous drug exposure, SRB protein assay, human tumor cell lines; for Log10GI50 mean graph midpoint (MG_MID): 50% cell growth inhibition; for Log10TGI mean graph midpoint (MG_MID): total cell growth inhibition (0% growth)
Experimental: as §1, §2

[10] = system: Melanoma cancer cell lines; test: NCI in vitro cytotoxicity screen (SRB assay), melanoma cell lines; format: cell-based, human; details: average of six to nine different cancer cell lines, 48 h exposure
Experimental: as §1, §2, §3

| SMILES | Log10LC50 concentration in mol/L causing 50% lethality [1] [mol/L] | Log10LC50 concentration in mol/L causing 50% lethality [2] [mol/L] | Log10LC50 concentration in mol/L causing 50% lethality [3] [mol/L] | Log10LC50 concentration in mol/L causing 50% lethality [4] [mol/L] | Log10LC50 concentration in mol/L causing 50% lethality [5] [mol/L] | Log10LC50 concentration in mol/L causing 50% lethality [6] [mol/L] | Log10LC50 concentration in mol/L causing 50% lethality [7] [mol/L] | Log10LC50 concentration in mol/L causing 50% lethality [8] [mol/L] | Log10LC50 mean graph midpoint (MG_MID) [9] | Log10GI50 mean graph midpoint (MG_MID) [9] | Log10TGI mean graph midpoint (MG_MID) [9] | mean graph pattern: profile of activity and selectivity ([9]; various cell lines) | Log10LC50 concentration in mol/L causing 50% lethality [10] [mol/L] |
| --- | --- | --- | --- | --- | --- | --- | --- | --- | --- | --- | --- | --- | --- |
| COc1cc2c(cc1OCCCCCN1CCN(c3cc(=O)oc4ccccc34)CC1)N=C[C@@H]1CCCN1C2=O [Compound 5c, 7-Methoxy-8-{5-[4-(2-oxo-2H-4-chromenyl)piperazino]pentyl}-oxy-(11aS)-1,2,3,11a-5H-pyrrolo[2,1-c][1,4]benzodiazepin-5-one] | −4.70 | −4.53 | −5.03 | −4.71 | −5.44 | −5.26 | −5.24 | −4.92 | −4.99 | −7.68 | −6.66 | interesting profile of activity and selectivity for various cell lines | −5.68 |
| COc1cc2c(cc1OCCCN1CCN(c3cc(=O)oc4c(C)c(OC)ccc34)CC1)N=C[C@@H]1CCCN1C2=O [Compound 5d, 7-Methoxy-8-{3-[4-(7-methoxy-8-methyl-2-oxo-2H-4-chromenyl)piperazino]propyl}-oxy-(11aS)-1,2,3,11a-5H-pyrrolo[2,1-c][1,4]benzodiazepin-5-one] | −4.11 | −4.00 | −4.22 | −4.11 | −4.00 | −5.29 | −4.87 | −4.23 | −4.19 | −5.68 | −4.86 | – | −4.34 |
| COc1cc2c(cc1OCCCCCN1CCN(c3cc(=O)oc4c(C)c(OC)ccc34)CC1)N=C[C@@H]1CCCN1C2=O [Compound 5f, 7-Methoxy-8-{5-[4-(7-methoxy-8-methyl-2-oxo-2H-4-chromenyl)piperazino]pentyl}-oxy-(11aS)-1,2,3,11a-5H-pyrrolo[2,1-c][1,4]benzodiazepin-5-one] | −4.63 | −4.85 | −5.39 | −4.52 | −4.28 | −5.17 | −5.41 | −4.87 | −4.96 | −6.49 | −5.85 | – | −5.29 |
